Reference: EP4775208A1, “USE OF PRMT5 INHIBITOR IN TREATMENT OF TUMORS OR CANCERS” (Apeiron Therapeutics (Hong Kong) Ltd., priority 2023, dated 2025)

Assays:
[1] = Mouse pharmacokinetic experiment (IV and PO, plasma); format: in vivo, ICR male mice; details: ICR mice; for bioavailability: male, mouse, read-out: Bioavailability F (%); for bioavailability / AUClast: plasma
Protocol: II. Mouse Pharmacokinetic Experiment
The compounds used in this experiment are specific embodiments of the present invention, with reference to compound AMG473 as an example from Amgen's patent WO 2022/169948A1, identified as example 473.
ICR male mice, N=3/group; sourced from Zhejiang Vital River Laboratory Animal Technology Co., Ltd.
3. Drug Preparation and Administration
Single oral (PO) administration to ICR mice: Compounds were dissolved in dimethyl sulfoxide, added to polyethylene glycol 400 and sterile water, and then adjusted to a clear solution with a small amount of 1 mol/L hydrochloric acid. After overnight fasting, the mice were orally gavaged with a dose of 10 mg/kg. Single intravenous (IV) administration to ICR mice: Compounds were dissolved in dimethyl sulfoxide, added to polyethylene glycol 400 and sterile water, and then adjusted to a clear solution with a small amount of 1 mol/L hydrochloric acid. After overnight fasting, the mice received tail vein injections with a dose of 3 mg/kg.
Approximately 30 µL/time point blood samples were collected via the tail vein. Potassium ethylenediaminetetraacetate was used as an anticoagulant, and samples were centrifuged at 4000 g/min for 5 minutes at 4°C within 1 hour. Blood sampling time points were 0.0833 (IV), 0.25, 0.5, 1, 2, 4, 6, 8, 24 hours. Samples were stored in a -20°C freezer.
Plasma samples (30µL, 10µL sample + 20µL blank plasma) were mixed with 200µL ice-cold acetonitrile containing internal standards. After vortexing for 30 seconds, samples were centrifuged at 4000g/min for 20 minutes. One hundred microliters of the supernatant were transferred to a 96-well plate, followed by the addition of 200µL ultrapure water. After vortexing for 30 seconds, 5µL or 10µL were injected into LC-MS/MS for analysis. Table 7: Pharmacokinetic Data

SK-MEL-5 = assay: Mini cell panel: inhibition of proliferation of SK-MEL-5 cells; format: cell-based; details: Homo sapiens, MTAP (-/-)
Excerpt: Test 9: Mini Cell Panel: Assay for Inhibitory Activity of Compounds against Proliferation of 20 Tumor Cell Lines
Materials and Cells: Fifteen MTAP(-/-) cell lines and five MTAP wild-type cell lines were purchased from ATCC (USA). Cell culture media, fetal bovine serum (FBS), and penicillin-streptomycin were purchased from Thermo Fisher Scientific (USA). 384-well plates were purchased from PerkinElmer (USA). The CellTiter-Glo assay kit was purchased from Promega (USA). Paclitaxel was used as the control compound.

For `CN(C(=O)c1cc2c(cn1)nc(N)c1cncn12)[C@@H]1COc2cc(C(F)(F)F)ccc21` [Example 4, (S)-4-amino-N-methy 1-N-(6-(trifluoromethy 1)-2,3-dihydrobenzofuran-3-yl)imidazo[1,5-a]pyrido[3,4-e]pyrazine-8-carboxamide], the bioavailability ([1]; PO(10mg/kg) vs IV(3mg/kg)) was 77% and the IC50 (SK-MEL-5) was > 1000 nM.

For `[2H]C([2H])([2H])N(C(=O)c1ccc2nc(N)c3cncn3c2c1)[C@@H]1COc2cc(C(F)(F)F)ccc21` [Example 16, (S)-4-amino-N-(methyl-d3)-N-(6-(trifluoromethyl)-2,3-dihydrobenzofuran-3-yl)imidaz o[1,5-a]quinoxaline-8-carboxamide], the bioavailability ([1]; PO(10mg/kg) vs IV(3mg/kg)) was 131%.

`[2H]C([2H])([2H])N(C(=O)c1cc2c(cc1F)nc(N)c1cncn12)[C@@H]1COc2cc(C(F)(F)F)ccc21` [Example 41, (S)-4-amino-7-fluoro-N-(methyl-d3)-N-(6-(trifluoromethyl)-2,3-di hydrobenzofuran-3-yl)imidazo[1,5-a]quinox aline-8-carboxamide] showed a bioavailability ([1]; PO(10mg/kg) vs IV(3mg/kg)) of 257%.

For “(S)-4-amino-7-fluoro-N-methyl-N-(6-(triflu oromethyl)-2,3-dihydr obenzofuran-3-yl)imi dazo[1,5-a]quinoxalin e-8-carboxamide [Example 29]”, the “T1/2” value ([1]; IV(3mg/kg)) was 4.38 h, the “AUClast” value ([1]; IV(3mg/kg)) was 12925 ng·h/mL and the “T1/2” value ([1]; PO(10mg/kg)) was 4.16 h. The “Bioavailability F (%)” value ([1]; PO(10mg/kg) vs IV(3mg/kg)) was 102% and the “AUClast” value ([1]; PO(10mg/kg)) was 43906 ng·h/mL.
